Measured values reported in patent EP1650209A1, “Griseusin derivatives and their use as antitumor agents” (Oncotest GmbH, priority 2004, dated 2006).
Converted amounts (≈) assume the structure as drawn.

What was measured:
Assay in all cases: Proliferation inhibition of cancer cells (propidium iodide fluorescence)
Assay type in all cases: cell-based, human
GXF 251 L = settings: Homo sapiens, 96 h, GXF 251L cell line, 4 days, read-out: IC50 value
Protocol: (§1) Using various human cancer cells in vitro, the concentrations of the test compounds (A, B, C, D, E, F), which inhibit the proliferation of cancer cells by 50% (IC50) and 70% (IC70) were determined. Specifically, each cell line of bladder cancer (BXF 1218L and T-24), glioblastoma (CNXF 498NL), colic cancer (HCT-116 and HT-29), gastric cancer (GXF 251 L), head and neck cancer (HNXF 536L), non small cell lung cancer (LXF 1121L, LXF 289L, LXF 526L, LXF 529L, LXF 629L and H-460), mammary cancer (MAXF 401NL, MCF-7, MDA-231 and MDA-468), melanoma (MEXF 276L, MEXF 394NL, MEXF 462NL, MEXF 514L and MEXF 520L), ovary cancer (OVXF 1619L, OVXF 899L and OVCAR-3), pancreatic cancer (PAXF 1657L and PANC-1), prostate cancer (22Rv1, DU-145, LNCaP and PC3M), pleuramesothelioma (PXF 1752L), renal cancer (RXF 1781 L, RXF 393NL, RXF 486L and RXF 944L), and uterine cancer (UXF 1138L) is added to a 96-well microtiter plate at a density of 3.6-11.2x10^3 cells per well in RPMI-1640 medium containing 10% fetal calf serum and 0.1% gentamicin and incubated for 24 hours. After 24 hours RPMI-1640 medium containing 10% fetal calf serum and 0.1% gentamicin, together with a test compound, is added thereto. Then, this plate is incubated at 37°C for 4 days in a humidified atmosphere of air containing 5% CO2. Thereafter, the cell culture medium with or without drug was replaced by 200 µl of an aqueous PI solution (7 µg/ml propidium iodide). Applying a freeze thaw cycle to permeabilize intact cell walls, staining of DNA was achieved, and the fluorescence of each well was measured using the Cy-tofluor 4000 microplate reader (excitation 530 nm, emission 620 nm), giving a direct relationship to the total cell number. Proliferation inhibition is expressed as test versus untreated control (T/C-value [%]). IC50 and IC70 values were determined by plotting compound concentration versus cell viability.

MEXF 462NL = settings: Homo sapiens, 96 h, MEXF 462NL cell line, 4 days, read-out: IC50 value
Protocol: as §1

RXF 486L = settings: Homo sapiens, 96 h, RXF 486L cell line, 4 days, read-out: IC50 value
Protocol: as §1

UXF 1138L = settings: Homo sapiens, 96 h, UXF 1138L cell line, 4 days, read-out: IC50 value
Protocol: as §1

MAXF 401NL = settings: Homo sapiens, 96 h, MAXF 401NL cell line, 4 days, read-out: IC50 value
Protocol: as §1

LXFL 529L = settings: Homo sapiens, 96 h, LXFL 529L cell line, 4 days, read-out: IC50 value
Protocol: as §1

Row | SMILES | IC50 (GXF 251 L) [µg/mL] | IC50 (MEXF 462NL) [µg/mL] | IC50 (RXF 486L) [µg/mL] | IC50 (UXF 1138L) [µg/mL] | IC50 (MAXF 401NL) [µg/mL] | IC50 (LXFL 529L) [µg/mL]
1 | CC1CC(O)C(O)C2(O1)OC1CC(=O)OC1C1=C2C(=O)c2c(O)cccc2C1=O (stereo not drawn) [Compound A, deacetylgriseusin A, reference compound] | 3.06 (≈ 7.62 µM) | 1.13 (≈ 2.8 µM) | 1.11 (≈ 2.77 µM) | 8.08 (≈ 20.1 µM) | 0.345 (≈ 0.857 µM) | 8.95 (≈ 22.2 µM)
2 | COC(=O)CC1OC2(OC(C)CC(O)C2O)C2=C(C(=O)c3cccc(O)c3C2=O)C1O (stereo not drawn) [Compound E, 4-hydroxy-deacetylgriseusin B methylester] | 0.393 (≈ 0.905 µM) | 0.094 (≈ 0.216 µM) | 0.288 (≈ 0.663 µM) | 0.377 (≈ 0.868 µM) | 0.046 (≈ 0.106 µM) | 3.87 (≈ 8.9 µM)
3 | COC(=O)CC1OC2(OC(C)CC(=O)C2O)C2=C(C(=O)c3cccc(O)c3C2=O)C1O (stereo not drawn) [Compound F, 4'-dehydro-4-hydroxy-deacetylgriseusin B methylester] | 0.037 (≈ 0.0856 µM) | 0.029 (≈ 0.0671 µM) | 0.053 (≈ 0.123 µM) | 0.302 (≈ 0.698 µM) | 0.034 (≈ 0.0786 µM) | 0.158 (≈ 0.365 µM)
